Measurements taken from publication PMC11647725, “Discovery of 4-(5-Membered)Heteroarylether-6-methylpicolinamide Negative Allosteric Modulators of Metabotropic Glutamate Receptor Subtype 5” (ACS Medicinal Chemistry Letters, 2024).
pIC50: −log10 of the molar value.

Columns and labels:
[1] = biological target: Serotonin (5-Hydroxytryptamine) 5-HT1A (Homo sapiens, UniProt P08908); assay: Lead Profiling Screen, Eurofins Panlabs; format: binding; conditions: Serotonin 5-HT1A, hum, read-out: % inh at 10 μM
[2] = biological target: Leukotriene, Cysteinyl CysLT1 (Homo sapiens, UniProt Q9Y271); assay: Lead Profiling Screen, Eurofins Panlabs; format: binding; conditions: Cysteinyl CysLT1, hum, read-out: % inh at 10 μM
Estrogen Erα = Estrogen Erα (Homo sapiens, UniProt P03372); assay: Lead Profiling Screen, Eurofins Panlabs; format: binding; conditions: hum, read-out: % inh at 10 μM
Excerpt: (§1) Nonetheless, as a non-aryl/heterobiaryl acetylene mGlu5 NAM with an encouraging in vivo rodent PK profile, we wished to further assess VU6043653 as a novel chemotype. Therefore, we compared metabolites in multiple species to better understand species differences in clearance and metabolism. […] Consistent with the high plasma clearance observed in dogs, high turnover was observed more so in dog hepatocytes than any other species tested (see the Supporting Information for additional details and results). To further evaluate our novel chemotype, the off-target and safety/toxicity profiles for this compound were further investigated.
(§2) Table S2. Lead Profiling Screen – Eurofins Panlabs for VU6043653.

Adrenergic α1D = Adrenergic α1D (Homo sapiens, UniProt P25100); assay: Lead Profiling Screen, Eurofins Panlabs; format: binding; conditions: hum, read-out: % inh at 10 μM
Excerpt: as §1, §2

Dopamine D4.4 = Dopamine D4.4 (Homo sapiens, UniProt P21917); assay: Lead Profiling Screen, Eurofins Panlabs; format: binding; conditions: Dopamine D4.4, hum, read-out: % inh at 10 μM
Excerpt: as §1, §2

Dopamine D1 = Dopamine D1 (Homo sapiens, UniProt P21728); assay: Lead Profiling Screen, Eurofins Panlabs; format: binding; conditions: Dopamine D1, hum, read-out: % inh at 10 μM
Excerpt: as §1, §2

Bradykinin B1 = Bradykinin B1 (Homo sapiens, UniProt P46663); assay: Lead Profiling Screen, Eurofins Panlabs; format: binding; conditions: Bradykinin B1, hum, read-out: % inh at 10 μM
Excerpt: as §1, §2

Endothelin ETA = Endothelin ETA (Homo sapiens, UniProt P25101); assay: Lead Profiling Screen, Eurofins Panlabs; format: binding; conditions: hum, read-out: % inh at 10 μM
Excerpt: as §1, §2

Adrenergic α1B = Adrenergic α1B (Homo sapiens, UniProt P35368); assay: Lead Profiling Screen, Eurofins Panlabs; format: binding; conditions: hum, read-out: % inh at 10 μM
Excerpt: as §1, §2

Adenosine A2A = Adenosine A2A (Homo sapiens, UniProt P29274); assay: Lead Profiling Screen, Eurofins Panlabs; format: binding; conditions: hum, read-out: % inh at 10 μM
Excerpt: as §1, §2

GABAB1A = GABAB1A (Homo sapiens, UniProt Q9UBS5); assay: Lead Profiling Screen, Eurofins Panlabs; format: binding; conditions: hum, read-out: % inh at 10 μM
Excerpt: as §1, §2

Dopamine D2S = Dopamine D2S (Homo sapiens, UniProt P14416); assay: Lead Profiling Screen, Eurofins Panlabs; format: binding; conditions: hum, read-out: % inh at 10 μM
Excerpt: as §1, §2

Adenosine A1 = Adenosine A1 (Homo sapiens, UniProt P30542); assay: Lead Profiling Screen, Eurofins Panlabs; format: binding; conditions: Adenosine A1, hum, read-out: % inh at 10 μM
Excerpt: as §1, §2

Glucocorticoid = Glucocorticoid (Homo sapiens, UniProt P04150); assay: Lead Profiling Screen, Eurofins Panlabs; format: binding; conditions: hum, read-out: % inh at 10 μM
Excerpt: as §1, §2

Bradykinin B2 = Bradykinin B2 (Homo sapiens, UniProt P30411); assay: Lead Profiling Screen, Eurofins Panlabs; format: binding; conditions: Bradykinin B2, hum, read-out: % inh at 10 μM
Excerpt: as §1, §2

Adrenergic β2 = Adrenergic β2 (Homo sapiens, UniProt P07550); assay: Lead Profiling Screen, Eurofins Panlabs; format: binding; conditions: Adrenergic β2, hum, read-out: % inh at 10 μM
Excerpt: as §1, §2

Dopamine D3 = Dopamine D3 (Homo sapiens, UniProt P35462); assay: Lead Profiling Screen, Eurofins Panlabs; format: binding; conditions: Dopamine D3, hum, read-out: % inh at 10 μM
Excerpt: as §1, §2

Histamine H1 = Histamine H1 (Homo sapiens, UniProt P35367); assay: Lead Profiling Screen, Eurofins Panlabs; format: binding; conditions: Histamine H1, hum, read-out: % inh at 10 μM
Excerpt: as §1, §2

Histamine H3 = Histamine H3 (Homo sapiens, UniProt Q9Y5N1); assay: Lead Profiling Screen, Eurofins Panlabs; format: binding; conditions: Histamine H3, hum, read-out: % inh at 10 μM
Excerpt: as §1, §2

Adrenergic α1A = Adrenergic α1A (Homo sapiens, UniProt P35348); assay: Lead Profiling Screen, Eurofins Panlabs; format: binding; conditions: hum, read-out: % inh at 10 μM
Excerpt: as §1, §2

Adrenergic α2A = Adrenergic α2A (Homo sapiens, UniProt P08913); assay: Lead Profiling Screen, Eurofins Panlabs; format: binding; conditions: hum, read-out: % inh at 10 μM
Excerpt: as §1, §2

Endothelin ETB = Endothelin ETB (Homo sapiens, UniProt P24530); assay: Lead Profiling Screen, Eurofins Panlabs; format: binding; conditions: hum, read-out: % inh at 10 μM
Excerpt: as §1, §2

Histamine H2 = Histamine H2 (Homo sapiens, UniProt P25021); assay: Lead Profiling Screen, Eurofins Panlabs; format: binding; conditions: Histamine H2, hum, read-out: % inh at 10 μM
Excerpt: as §1, §2

Adrenergic β1 = Adrenergic β1 (Homo sapiens, UniProt P08588); assay: Lead Profiling Screen, Eurofins Panlabs; format: binding; conditions: Adrenergic β1, hum, read-out: % inh at 10 μM
Excerpt: as §1, §2

Cannabinoid CB1 = Cannabinoid CB1 (Homo sapiens, UniProt P21554); assay: Lead Profiling Screen, Eurofins Panlabs; format: binding; conditions: Cannabinoid CB1, hum, read-out: % inh at 10 μM
Excerpt: as §1, §2

CYP 3A4 = biological target: T1, CYP 3A4 (Homo sapiens, UniProt P08684); assay: P450 inhibition in pooled human liver microsomes; format: in vitro ADME; conditions: pooled HLM, NADPH, CYP-specific probe substrates; listed as VU6043653
T1 construct: from tissue; host or cells: pooled human liver microsomes (per the earlier reading)
T1 sequence (P08684 whole entry): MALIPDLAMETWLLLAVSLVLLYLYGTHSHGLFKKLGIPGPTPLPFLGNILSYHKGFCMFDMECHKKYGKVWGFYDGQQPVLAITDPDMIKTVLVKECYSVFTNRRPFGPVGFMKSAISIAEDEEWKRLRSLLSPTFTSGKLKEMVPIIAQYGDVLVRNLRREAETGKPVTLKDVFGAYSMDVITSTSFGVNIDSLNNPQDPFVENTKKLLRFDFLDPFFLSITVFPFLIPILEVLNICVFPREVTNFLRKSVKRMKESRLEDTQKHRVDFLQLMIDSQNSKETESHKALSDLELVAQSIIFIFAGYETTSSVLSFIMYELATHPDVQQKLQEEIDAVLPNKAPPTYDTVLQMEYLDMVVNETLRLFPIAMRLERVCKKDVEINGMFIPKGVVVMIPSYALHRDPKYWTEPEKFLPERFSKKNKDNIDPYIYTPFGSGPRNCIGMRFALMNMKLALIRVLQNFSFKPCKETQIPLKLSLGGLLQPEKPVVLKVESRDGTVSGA

Chain of Dopamine D3 (P35462 whole entry): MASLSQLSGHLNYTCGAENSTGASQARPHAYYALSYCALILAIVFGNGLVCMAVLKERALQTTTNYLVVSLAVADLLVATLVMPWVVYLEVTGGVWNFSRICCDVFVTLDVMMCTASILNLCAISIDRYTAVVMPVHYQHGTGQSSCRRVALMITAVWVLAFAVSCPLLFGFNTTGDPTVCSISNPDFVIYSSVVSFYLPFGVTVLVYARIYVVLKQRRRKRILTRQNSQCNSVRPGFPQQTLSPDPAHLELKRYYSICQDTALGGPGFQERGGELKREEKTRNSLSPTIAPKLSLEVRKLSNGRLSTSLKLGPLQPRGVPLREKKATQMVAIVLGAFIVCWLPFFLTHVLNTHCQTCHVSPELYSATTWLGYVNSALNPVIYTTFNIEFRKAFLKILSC
Chain of Adrenergic β1 (P08588 whole entry): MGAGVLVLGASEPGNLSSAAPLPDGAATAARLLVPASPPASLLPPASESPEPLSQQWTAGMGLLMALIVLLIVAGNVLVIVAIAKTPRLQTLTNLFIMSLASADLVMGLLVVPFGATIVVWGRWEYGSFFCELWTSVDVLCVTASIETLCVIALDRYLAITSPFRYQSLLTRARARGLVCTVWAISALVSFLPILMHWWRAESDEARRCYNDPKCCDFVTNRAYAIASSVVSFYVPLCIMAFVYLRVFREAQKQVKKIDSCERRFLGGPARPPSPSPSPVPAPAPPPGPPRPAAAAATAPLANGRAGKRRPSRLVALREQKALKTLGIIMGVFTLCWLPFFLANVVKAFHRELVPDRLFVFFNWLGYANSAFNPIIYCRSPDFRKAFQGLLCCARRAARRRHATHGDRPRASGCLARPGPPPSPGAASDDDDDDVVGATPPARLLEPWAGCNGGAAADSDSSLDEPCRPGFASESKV
Chain of Adrenergic α1A (P35348 whole entry): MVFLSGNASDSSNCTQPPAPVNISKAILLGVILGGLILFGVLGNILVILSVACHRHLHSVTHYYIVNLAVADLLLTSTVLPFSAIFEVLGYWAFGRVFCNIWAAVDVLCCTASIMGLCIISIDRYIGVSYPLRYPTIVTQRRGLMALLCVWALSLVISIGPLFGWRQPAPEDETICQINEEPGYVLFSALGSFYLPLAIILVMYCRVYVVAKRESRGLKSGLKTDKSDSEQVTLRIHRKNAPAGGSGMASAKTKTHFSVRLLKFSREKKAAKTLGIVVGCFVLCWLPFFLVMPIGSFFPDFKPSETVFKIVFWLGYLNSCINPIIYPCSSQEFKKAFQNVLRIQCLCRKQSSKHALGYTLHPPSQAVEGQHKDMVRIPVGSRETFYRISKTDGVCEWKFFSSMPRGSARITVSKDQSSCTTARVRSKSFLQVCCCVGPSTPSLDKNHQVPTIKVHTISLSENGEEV
Chain of Adrenergic β2 (P07550 whole entry): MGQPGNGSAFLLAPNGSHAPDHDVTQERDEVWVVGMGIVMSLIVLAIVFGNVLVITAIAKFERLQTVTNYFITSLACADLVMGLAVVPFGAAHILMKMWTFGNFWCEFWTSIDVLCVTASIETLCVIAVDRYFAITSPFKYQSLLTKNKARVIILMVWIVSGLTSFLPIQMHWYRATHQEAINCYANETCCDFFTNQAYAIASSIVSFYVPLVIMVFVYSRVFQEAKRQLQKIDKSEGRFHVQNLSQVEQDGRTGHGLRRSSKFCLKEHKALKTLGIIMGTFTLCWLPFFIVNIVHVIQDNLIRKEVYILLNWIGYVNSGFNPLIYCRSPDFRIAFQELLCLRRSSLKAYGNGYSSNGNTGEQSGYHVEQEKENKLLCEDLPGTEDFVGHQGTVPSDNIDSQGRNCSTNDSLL
Chain of Dopamine D1 (P21728 whole entry): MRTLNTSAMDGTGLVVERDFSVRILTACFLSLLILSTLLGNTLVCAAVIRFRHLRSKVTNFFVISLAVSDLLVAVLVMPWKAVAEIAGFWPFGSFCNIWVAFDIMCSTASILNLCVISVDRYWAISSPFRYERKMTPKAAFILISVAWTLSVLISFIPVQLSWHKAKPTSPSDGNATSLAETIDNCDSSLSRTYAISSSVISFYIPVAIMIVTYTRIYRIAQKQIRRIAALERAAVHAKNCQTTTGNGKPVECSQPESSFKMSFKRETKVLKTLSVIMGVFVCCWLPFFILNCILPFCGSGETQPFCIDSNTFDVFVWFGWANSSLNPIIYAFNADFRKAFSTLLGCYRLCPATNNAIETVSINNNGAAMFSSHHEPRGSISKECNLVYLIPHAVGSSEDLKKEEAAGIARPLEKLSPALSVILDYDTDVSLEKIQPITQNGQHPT
Chain of Glucocorticoid (P04150 whole entry): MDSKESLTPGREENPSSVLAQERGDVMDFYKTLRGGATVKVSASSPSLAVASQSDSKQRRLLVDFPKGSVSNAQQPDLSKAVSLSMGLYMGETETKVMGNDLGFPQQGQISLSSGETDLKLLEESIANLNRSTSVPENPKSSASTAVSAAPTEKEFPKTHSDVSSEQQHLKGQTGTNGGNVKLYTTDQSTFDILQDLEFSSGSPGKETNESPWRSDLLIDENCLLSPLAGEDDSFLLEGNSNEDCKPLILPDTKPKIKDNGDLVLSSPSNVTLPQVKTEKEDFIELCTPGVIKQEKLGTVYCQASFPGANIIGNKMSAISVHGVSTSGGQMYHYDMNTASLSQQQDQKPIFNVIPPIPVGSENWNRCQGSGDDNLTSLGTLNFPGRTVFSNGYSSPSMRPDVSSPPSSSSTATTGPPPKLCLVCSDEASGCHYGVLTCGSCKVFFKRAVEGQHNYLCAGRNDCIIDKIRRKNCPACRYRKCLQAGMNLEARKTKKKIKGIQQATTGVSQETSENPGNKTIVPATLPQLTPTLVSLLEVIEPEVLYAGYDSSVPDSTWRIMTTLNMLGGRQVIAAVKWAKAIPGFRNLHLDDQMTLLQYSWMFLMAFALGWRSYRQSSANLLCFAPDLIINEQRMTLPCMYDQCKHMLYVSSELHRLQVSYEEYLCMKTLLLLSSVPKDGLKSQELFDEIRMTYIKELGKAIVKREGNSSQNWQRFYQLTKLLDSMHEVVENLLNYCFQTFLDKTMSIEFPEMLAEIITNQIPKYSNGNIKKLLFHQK
Chain of Serotonin (5-Hydroxytryptamine) 5-HT1A (P08908 whole entry): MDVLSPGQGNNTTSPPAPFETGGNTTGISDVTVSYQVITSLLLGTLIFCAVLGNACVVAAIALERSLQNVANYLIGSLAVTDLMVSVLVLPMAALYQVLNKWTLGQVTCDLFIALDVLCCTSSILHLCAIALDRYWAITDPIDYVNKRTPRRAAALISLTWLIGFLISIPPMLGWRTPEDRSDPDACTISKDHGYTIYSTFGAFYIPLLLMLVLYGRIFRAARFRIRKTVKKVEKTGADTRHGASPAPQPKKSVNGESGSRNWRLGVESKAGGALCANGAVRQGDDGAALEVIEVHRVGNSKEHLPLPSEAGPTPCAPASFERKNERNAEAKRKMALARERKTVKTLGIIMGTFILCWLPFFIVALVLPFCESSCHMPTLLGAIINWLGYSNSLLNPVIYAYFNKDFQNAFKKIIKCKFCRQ
Chain of Endothelin ETB (P24530 27-442): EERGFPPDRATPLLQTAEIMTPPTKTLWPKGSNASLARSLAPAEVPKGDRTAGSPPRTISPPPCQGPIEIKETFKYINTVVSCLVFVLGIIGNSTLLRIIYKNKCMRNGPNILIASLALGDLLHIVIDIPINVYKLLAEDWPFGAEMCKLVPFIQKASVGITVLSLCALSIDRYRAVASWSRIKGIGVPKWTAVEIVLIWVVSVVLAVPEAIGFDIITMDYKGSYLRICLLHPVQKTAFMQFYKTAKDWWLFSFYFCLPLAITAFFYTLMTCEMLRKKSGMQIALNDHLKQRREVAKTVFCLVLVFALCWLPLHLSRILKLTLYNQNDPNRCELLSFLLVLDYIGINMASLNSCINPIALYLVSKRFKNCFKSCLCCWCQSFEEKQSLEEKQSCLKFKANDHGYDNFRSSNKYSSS
Chain of Adrenergic α1D (P25100 whole entry): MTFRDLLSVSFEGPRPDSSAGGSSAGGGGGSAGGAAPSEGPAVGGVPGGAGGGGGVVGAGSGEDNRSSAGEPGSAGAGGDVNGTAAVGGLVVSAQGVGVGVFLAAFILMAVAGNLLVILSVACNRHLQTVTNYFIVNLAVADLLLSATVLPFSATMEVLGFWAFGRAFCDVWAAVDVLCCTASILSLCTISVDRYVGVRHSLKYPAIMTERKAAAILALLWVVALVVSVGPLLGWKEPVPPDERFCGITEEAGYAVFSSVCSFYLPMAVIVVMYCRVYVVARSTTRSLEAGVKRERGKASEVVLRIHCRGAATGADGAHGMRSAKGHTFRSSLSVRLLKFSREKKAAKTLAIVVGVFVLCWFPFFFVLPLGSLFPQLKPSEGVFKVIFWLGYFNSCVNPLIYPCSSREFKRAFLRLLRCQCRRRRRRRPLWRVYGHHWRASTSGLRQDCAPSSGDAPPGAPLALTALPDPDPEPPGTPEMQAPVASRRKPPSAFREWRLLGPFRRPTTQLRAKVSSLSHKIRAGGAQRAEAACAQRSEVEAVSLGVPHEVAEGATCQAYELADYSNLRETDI

What does the source list for `Cc1cc(Oc2cnn(C)c2)cc(C(=O)Nc2ccc(F)cn2)n1` [22iA]?
inhibition at 10 µM [1]: 3%; inhibition at 10 µM [2]: 7%; inhibition at 10 µM (Estrogen Erα): 4%; inhibition at 10 µM (Adrenergic α1D): 3%; inhibition at 10 µM (Dopamine D4.4): -9%; inhibition at 10 µM (Dopamine D1): -2%; inhibition at 10 µM (Bradykinin B1): 4%; inhibition at 10 µM (Endothelin ETA): -2%; inhibition at 10 µM (Adrenergic α1B): 3%; inhibition at 10 µM (Adenosine A2A): 9%; inhibition at 10 µM (GABAB1A): 3%; inhibition at 10 µM (Dopamine D2S): -10%; inhibition at 10 µM (Adenosine A1): 20%; inhibition at 10 µM (Glucocorticoid): 10%; inhibition at 10 µM (Bradykinin B2): 1%; inhibition at 10 µM (Adrenergic β2): -5%; inhibition at 10 µM (Dopamine D3): -6%; inhibition at 10 µM (Histamine H1): 24%; inhibition at 10 µM (Histamine H3): 5%; inhibition at 10 µM (Adrenergic α1A): 0%; inhibition at 10 µM (Adrenergic α2A): 8%; inhibition at 10 µM (Endothelin ETB): -13%; inhibition at 10 µM (Histamine H2): -4%; inhibition at 10 µM (Adrenergic β1): -4%; inhibition at 10 µM (Cannabinoid CB1): 15%; pIC50 (CYP 3A4): ≤ 4.52
